Data taken from ChEMBL document CHEMBL5291721, “A preclinical secondary pharmacology resource illuminates target-adverse drug reaction associations of marketed drugs” (Nat Commun, 2023).

Columns and labels:
[1] = target: T1, Prostaglandin G/H synthase 1 (Rattus norvegicus, UniProt Q63921); format: functional
T1 sequence (Q63921 whole entry): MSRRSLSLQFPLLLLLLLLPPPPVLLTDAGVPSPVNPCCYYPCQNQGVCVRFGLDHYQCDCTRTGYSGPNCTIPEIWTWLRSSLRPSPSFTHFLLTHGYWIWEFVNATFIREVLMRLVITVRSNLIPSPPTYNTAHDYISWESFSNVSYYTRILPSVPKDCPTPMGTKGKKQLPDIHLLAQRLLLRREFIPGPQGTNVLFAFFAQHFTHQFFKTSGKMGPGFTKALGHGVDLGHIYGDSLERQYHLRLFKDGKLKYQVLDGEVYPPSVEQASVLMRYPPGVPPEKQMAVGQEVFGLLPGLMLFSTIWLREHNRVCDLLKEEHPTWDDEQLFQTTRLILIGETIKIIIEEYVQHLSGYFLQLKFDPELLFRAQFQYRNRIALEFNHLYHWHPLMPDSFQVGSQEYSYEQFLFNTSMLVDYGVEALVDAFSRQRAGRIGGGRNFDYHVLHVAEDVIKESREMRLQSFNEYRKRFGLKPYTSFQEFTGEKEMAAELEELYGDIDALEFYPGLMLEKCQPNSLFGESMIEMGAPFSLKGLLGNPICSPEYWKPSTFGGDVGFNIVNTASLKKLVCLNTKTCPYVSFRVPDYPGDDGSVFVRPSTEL

Adenosine receptor A3 = target: T2, Adenosine receptor A3 (Homo sapiens, UniProt P0DMS8)
T2 sequence (P0DMS8 whole entry): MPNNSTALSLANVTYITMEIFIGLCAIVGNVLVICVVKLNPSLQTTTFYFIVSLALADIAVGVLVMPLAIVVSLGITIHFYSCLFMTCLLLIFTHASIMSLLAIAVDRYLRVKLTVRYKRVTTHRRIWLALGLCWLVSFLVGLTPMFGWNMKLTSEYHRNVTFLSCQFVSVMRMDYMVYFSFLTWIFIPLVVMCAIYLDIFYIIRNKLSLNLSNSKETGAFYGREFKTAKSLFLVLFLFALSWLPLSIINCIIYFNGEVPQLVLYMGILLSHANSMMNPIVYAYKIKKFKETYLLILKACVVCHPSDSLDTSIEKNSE

[2] = target: T3, Alpha-2A adrenergic receptor (Homo sapiens, UniProt P08913)
T3 sequence (P08913 whole entry): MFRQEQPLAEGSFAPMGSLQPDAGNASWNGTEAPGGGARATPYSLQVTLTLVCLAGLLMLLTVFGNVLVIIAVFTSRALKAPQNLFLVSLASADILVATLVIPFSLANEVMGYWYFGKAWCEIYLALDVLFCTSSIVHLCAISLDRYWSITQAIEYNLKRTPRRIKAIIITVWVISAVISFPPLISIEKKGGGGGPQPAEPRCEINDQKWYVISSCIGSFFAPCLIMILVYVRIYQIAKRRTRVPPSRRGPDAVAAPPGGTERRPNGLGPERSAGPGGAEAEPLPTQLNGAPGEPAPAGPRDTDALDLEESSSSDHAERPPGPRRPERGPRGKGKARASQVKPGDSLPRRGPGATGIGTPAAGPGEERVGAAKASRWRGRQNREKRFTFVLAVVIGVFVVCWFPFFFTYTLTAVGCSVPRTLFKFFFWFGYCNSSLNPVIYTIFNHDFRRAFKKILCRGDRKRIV

D(3) dopamine receptor = D(3) dopamine receptor (Homo sapiens, UniProt P35462)
D(3) dopamine receptor, sequence (P35462 whole entry): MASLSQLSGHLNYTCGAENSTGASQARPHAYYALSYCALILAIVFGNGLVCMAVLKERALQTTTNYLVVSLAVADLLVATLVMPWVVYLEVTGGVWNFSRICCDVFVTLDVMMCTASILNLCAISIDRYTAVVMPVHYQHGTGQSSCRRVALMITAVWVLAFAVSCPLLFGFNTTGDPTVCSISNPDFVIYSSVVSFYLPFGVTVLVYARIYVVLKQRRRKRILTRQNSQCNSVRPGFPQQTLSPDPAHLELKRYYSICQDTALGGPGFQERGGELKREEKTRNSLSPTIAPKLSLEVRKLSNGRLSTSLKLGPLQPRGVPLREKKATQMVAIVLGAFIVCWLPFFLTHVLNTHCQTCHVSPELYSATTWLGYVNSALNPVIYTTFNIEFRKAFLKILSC

[3] = target: Gamma-aminobutyric acid receptor subunit alpha-1/alpha-2/beta-2/gamma-2 (Homo sapiens, UniProt P14867+P18507+P47869+P47870); format: protein-complex assay
Gamma-aminobutyric acid receptor subunit alpha-1/alpha-2/beta-2/gamma-2, sequence (P14867 whole entry): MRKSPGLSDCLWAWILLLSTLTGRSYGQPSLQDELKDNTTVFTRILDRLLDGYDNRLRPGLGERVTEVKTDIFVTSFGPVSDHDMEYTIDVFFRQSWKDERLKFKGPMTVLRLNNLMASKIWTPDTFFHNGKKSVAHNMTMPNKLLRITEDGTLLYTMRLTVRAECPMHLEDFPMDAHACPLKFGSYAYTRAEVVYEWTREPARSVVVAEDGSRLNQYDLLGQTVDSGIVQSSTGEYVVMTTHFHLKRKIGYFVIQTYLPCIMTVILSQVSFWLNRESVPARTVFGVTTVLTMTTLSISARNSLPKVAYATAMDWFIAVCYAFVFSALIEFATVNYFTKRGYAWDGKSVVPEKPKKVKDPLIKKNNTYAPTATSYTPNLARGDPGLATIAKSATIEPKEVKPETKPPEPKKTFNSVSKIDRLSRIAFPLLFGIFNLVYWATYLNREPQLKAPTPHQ
Gamma-aminobutyric acid receptor subunit alpha-1/alpha-2/beta-2/gamma-2, sequence (P47870 whole entry): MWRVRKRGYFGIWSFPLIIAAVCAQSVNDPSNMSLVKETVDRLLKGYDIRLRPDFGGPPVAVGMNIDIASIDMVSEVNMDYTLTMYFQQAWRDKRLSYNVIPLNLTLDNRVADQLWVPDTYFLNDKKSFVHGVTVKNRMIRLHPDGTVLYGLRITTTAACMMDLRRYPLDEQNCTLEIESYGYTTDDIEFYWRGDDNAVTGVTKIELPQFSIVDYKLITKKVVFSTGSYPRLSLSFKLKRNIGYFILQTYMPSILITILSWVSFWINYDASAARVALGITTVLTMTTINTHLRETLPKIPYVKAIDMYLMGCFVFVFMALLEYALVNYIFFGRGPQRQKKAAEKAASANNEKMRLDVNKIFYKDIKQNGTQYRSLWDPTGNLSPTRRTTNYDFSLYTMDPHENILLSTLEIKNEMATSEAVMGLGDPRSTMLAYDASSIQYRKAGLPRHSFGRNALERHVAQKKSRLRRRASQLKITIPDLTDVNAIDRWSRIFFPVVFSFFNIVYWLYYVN
Gamma-aminobutyric acid receptor subunit alpha-1/alpha-2/beta-2/gamma-2, sequence (P18507 whole entry): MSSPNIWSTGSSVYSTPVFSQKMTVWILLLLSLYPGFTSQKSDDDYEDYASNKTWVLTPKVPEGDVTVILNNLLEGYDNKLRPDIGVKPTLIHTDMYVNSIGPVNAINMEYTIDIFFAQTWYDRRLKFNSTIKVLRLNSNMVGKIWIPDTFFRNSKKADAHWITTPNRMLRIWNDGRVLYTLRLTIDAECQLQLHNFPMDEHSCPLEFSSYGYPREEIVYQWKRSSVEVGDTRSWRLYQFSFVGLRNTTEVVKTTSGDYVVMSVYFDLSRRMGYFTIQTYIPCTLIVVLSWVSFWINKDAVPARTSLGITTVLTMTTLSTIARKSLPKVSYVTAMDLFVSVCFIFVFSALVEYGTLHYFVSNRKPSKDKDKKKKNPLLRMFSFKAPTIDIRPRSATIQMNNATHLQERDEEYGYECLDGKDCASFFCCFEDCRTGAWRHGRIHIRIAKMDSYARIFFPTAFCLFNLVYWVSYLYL
Gamma-aminobutyric acid receptor subunit alpha-1/alpha-2/beta-2/gamma-2, sequence (P47869 whole entry): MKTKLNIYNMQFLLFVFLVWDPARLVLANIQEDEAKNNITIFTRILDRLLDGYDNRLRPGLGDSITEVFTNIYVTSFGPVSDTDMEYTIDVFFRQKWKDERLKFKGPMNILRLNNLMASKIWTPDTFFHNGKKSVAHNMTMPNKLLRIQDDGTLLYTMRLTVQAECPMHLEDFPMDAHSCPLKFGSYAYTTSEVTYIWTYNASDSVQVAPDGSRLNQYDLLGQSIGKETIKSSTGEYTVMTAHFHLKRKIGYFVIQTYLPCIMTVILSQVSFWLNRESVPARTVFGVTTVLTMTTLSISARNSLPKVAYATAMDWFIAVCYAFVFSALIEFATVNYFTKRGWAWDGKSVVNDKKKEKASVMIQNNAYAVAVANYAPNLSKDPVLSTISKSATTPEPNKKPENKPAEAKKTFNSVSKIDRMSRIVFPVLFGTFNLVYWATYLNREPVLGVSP

[4] = target: 5-hydroxytryptamine receptor 2B (Homo sapiens, UniProt P41595); format: functional, cell-based
5-hydroxytryptamine receptor 2B, sequence (P41595 whole entry): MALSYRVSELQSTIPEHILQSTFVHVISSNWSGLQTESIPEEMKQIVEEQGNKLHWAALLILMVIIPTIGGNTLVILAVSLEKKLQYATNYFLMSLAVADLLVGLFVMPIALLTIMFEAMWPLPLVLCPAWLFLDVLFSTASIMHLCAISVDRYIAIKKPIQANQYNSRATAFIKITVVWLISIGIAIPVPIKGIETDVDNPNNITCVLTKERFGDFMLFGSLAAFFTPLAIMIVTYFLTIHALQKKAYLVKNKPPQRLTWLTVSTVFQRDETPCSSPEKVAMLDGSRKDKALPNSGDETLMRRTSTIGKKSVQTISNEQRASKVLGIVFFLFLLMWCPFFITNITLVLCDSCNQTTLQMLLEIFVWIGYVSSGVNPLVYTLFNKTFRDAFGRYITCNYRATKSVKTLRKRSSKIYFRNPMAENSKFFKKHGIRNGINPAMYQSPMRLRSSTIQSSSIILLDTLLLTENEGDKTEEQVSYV

[5] = target: T4, Amine oxidase [flavin-containing] A (Homo sapiens, UniProt P21397); format: functional
T4 sequence (P21397 whole entry): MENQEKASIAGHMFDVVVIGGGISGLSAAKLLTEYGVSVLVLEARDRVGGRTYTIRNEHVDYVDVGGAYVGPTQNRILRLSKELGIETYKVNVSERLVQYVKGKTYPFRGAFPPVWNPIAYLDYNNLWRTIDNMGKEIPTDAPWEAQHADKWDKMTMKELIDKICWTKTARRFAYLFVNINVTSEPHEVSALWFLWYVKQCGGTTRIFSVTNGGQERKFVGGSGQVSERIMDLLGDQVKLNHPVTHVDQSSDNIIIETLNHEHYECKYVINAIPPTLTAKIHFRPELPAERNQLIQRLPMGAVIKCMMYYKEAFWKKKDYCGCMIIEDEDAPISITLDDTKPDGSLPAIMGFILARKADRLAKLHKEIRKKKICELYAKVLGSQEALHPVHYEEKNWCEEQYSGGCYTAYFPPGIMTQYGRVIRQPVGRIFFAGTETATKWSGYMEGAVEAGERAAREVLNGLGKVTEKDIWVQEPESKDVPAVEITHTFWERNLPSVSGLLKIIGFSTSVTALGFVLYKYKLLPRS

[6] = target: cGMP-inhibited 3',5'-cyclic phosphodiesterase 3A (Homo sapiens, UniProt Q14432); format: functional
cGMP-inhibited 3',5'-cyclic phosphodiesterase 3A, sequence (Q14432 whole entry): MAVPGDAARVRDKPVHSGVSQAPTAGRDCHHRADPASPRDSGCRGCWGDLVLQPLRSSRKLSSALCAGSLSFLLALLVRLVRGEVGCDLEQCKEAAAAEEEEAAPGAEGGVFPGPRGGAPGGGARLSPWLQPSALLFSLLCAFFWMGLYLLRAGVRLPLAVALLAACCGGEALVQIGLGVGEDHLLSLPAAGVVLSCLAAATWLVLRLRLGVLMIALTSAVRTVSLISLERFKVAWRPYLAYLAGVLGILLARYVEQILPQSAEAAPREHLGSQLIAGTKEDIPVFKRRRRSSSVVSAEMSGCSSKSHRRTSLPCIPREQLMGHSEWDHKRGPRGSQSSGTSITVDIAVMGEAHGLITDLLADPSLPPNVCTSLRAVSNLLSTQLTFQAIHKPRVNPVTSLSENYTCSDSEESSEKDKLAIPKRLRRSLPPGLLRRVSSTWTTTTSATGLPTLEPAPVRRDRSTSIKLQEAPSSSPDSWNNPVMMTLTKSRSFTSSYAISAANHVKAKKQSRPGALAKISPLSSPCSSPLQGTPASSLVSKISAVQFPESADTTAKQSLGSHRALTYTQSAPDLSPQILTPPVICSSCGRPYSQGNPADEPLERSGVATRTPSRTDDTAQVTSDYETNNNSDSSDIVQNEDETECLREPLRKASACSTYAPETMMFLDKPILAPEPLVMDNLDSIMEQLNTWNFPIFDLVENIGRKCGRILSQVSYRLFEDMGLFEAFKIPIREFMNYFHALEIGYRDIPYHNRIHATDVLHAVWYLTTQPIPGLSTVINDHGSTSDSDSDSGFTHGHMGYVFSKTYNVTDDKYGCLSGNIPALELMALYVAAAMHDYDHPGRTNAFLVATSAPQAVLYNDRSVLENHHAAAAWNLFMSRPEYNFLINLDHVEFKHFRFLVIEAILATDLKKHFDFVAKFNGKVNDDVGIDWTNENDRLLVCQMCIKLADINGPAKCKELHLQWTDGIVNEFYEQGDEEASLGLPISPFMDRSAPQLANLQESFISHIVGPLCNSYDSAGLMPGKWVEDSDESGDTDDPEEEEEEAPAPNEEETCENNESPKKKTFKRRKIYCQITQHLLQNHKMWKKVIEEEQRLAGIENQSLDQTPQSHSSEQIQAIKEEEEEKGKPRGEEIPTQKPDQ

[7] = target: Sodium-dependent dopamine transporter (Homo sapiens, UniProt Q01959)
Sodium-dependent dopamine transporter, sequence (Q01959 whole entry): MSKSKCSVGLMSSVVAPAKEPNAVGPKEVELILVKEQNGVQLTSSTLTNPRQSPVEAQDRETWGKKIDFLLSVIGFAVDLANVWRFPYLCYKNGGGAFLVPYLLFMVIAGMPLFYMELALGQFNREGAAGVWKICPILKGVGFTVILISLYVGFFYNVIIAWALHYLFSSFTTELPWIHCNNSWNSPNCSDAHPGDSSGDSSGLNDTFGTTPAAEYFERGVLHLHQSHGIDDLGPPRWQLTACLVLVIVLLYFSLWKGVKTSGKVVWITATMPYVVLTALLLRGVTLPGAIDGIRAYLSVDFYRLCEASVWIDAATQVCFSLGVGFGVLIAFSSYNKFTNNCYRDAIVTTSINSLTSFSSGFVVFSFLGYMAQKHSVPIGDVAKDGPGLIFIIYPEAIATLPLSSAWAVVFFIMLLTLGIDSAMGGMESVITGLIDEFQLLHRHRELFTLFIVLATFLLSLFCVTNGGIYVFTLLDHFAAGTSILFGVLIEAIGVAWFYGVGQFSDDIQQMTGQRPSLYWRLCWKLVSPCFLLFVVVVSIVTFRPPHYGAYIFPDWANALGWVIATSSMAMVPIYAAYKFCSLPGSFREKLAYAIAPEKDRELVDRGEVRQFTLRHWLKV

Estrogen receptor = target: T5, Estrogen receptor (Homo sapiens, UniProt P03372); format: functional
T5 sequence (P03372 whole entry): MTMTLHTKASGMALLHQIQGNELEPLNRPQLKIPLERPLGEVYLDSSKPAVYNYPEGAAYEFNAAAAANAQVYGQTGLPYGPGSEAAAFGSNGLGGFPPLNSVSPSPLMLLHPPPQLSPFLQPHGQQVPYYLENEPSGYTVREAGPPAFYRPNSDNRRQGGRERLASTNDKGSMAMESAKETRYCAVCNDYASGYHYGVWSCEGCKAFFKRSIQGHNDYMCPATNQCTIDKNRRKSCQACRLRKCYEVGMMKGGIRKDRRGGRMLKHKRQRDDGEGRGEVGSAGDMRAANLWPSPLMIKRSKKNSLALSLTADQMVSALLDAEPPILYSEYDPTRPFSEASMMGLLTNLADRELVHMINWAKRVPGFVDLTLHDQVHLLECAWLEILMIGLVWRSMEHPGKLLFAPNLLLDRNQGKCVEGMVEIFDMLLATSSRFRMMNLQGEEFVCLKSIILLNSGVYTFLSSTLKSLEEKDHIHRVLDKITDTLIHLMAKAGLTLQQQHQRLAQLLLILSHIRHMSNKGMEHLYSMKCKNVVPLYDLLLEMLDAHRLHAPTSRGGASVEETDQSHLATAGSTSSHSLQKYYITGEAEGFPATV
Also: assay procedure not described here.

With CCOC(=O)c1ncn2c1CN(C)C(=O)c1cc(F)ccc1-2 [FLUMAZENIL] the AC50 [1] was greater than 30 µM.
Work on CCN(CC)CCCC(C)Nc1c2ccc(Cl)cc2nc2ccc(OC)cc12 (stereo not given) [QUINACRINE] yielded an AC50 (Adenosine receptor A3) greater than 30 µM, an AC50 [2] of 11.9 µM and an AC50 (D(3) dopamine receptor) of 7.05 µM. It also gave an AC50 [3] greater than 30 µM, an AC50 [4] greater than 30 µM and an AC50 [5] greater than 30 µM. It also gave an AC50 [6] greater than 30 µM and an AC50 [7] of 18.4 µM.
With CCOC(=O)[C@@H](N)Cc1ccc(-c2cc(O[C@H](c3ccc(Cl)cc3-n3ccc(C)n3)C(F)(F)F)nc(N)n2)cc1 [TELOTRISTAT ETHYL] the AC50 (Estrogen receptor) was greater than 30 µM.
